From patent publication US11814364B2, “Pyridine N-oxide derivatives useful as factor XIa inhibitors” (Janssen Pharmaceutica NV, priority 2021, dated 2023)
Like-named read-outs stand apart in the source and are kept apart here.

Tests used:
human plasma kallikrein = human plasma kallikrein (Homo sapiens, UniProt P03952); assay: Kallikrein inhibition FLINT assay with quenched AMC peptide substrate Z-Gly-Pro-Arg-AMC (end point EP or kinetic KIN reads); type: biochemical
Method in brief: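 Enzyme and compound were preincubated 30 min before adding 50 μM AMC substrate in pH 7.5 Tris/NaCl/CaCl2/BSA/CHAPS buffer. AMC release was read at 30 min endpoint or every 5 min.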

Factor XIa = Factor XIa (Homo sapiens, UniProt P03951); assay: Factor XIa inhibition FLINT assay with fluorophore-quencher peptide substrate 5Fam-[…]-K5Tamra (end point EP or kinetic KIN reads); type: biochemical; settings: end point read at 30 min; read-out: FXIa (EP) IC50
Description: Factor XIa inhibition assay utilizing a fluorophore-quencher pair peptide substrate A fluorescence intensity (FLINT) based assay was used to monitor inhibition of Factor XIa. The peptide substrate, 5Fam-[…]-K5Tamra (purchased from New England Peptide) was chosen based on the FXI sequence. Conversion of zymogen FXI to its activated form, FXIa, occurs by proteolytic cleavage by […] at two sites, Arg146 and Arg180. The custom peptide used in this assay was based on the Arg146 cleavage site of FXI. The peptide substrate was designed with a fluorophore-quencher pair, where the fluorescence is quenched until FXIa cleaves the 8-mer peptide after the Arg residue.
Test compound(s) were run in an 11-point, 3-fold serial dilution with a final top compound concentration of 100 nM. Final DMSO in assay was 2%. FXIa was preincubated with compound for 30-minutes and then substrate was added to initiate the reaction. The assay was run with either end point (EP) reads at 30 min or kinetic (KIN) reads at 5 min intervals over 30 minutes. […] More specifically, the assay was run as follows: • 100 nL of 0.01 mM test compound was dispensed into black 384-well non-binding Greiner BioOne 784900 plate for 0.1 μM final concentration; • 5 μL of 1× assay buffer was dispensed to column 24 (low control) and 5 μL 2× Factor XIa solution was dispensed to columns 1-23 (column 23 high control); • the plate was centrifuged with a “cover” plate at 500 rpm for 1 min • the plate was pre-incubated for 30 minutes at room temperature with plate covered; • 5 μL of 2×5Fam-[…]-K5Tamra peptide substrate was dispensed into the entire plate, columns 1-24; • the plate was centrifuged with a “cover” plate at 500 rpm for 1 min; • the plate was read monitoring fluorescence intensity on the BMG PHERAStar at room temperature, using fluorescence module 485 nm/520 nm.
Percent inhibition (IC50) curves were generated per compound tested, and data was analyzed using a 4-parameter logistic fit using GeneData Screener. The relative fluorescence unit (RFU) values were normalized to percent inhibition using the following equation: % inhibition=((HC−LC)−(compound−LC)/(HC−LC))*100
An 11-point dose response curve for the test compound(s) was generated using GENDATA to determine IC50 value based on the following equation: Y=Bottom+(Top−Bottom)/(1+10^((log IC50−X)*HillSlope))
Results listed in columns with […] designation were measured using endpoint reads where a single fluorescence reading was measured for each well at a 30 min timepoint.

[1] = end point read at 30 min, read-out: Kallikrein (EP) IC50
[2] = kinetic reads at 5 min intervals over 30 min, read-out: Kallikrein (KIN) IC50

Sequence of Factor XIa (P03951 388-625 limits assumed): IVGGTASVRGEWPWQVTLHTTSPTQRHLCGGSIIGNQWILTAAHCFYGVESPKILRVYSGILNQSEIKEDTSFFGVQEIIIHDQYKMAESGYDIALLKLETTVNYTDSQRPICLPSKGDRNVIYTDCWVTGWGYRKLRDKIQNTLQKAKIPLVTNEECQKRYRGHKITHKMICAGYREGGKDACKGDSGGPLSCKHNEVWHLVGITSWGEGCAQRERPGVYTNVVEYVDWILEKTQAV
Sequence of Factor XIa (P03951 19-387 partner limits assumed): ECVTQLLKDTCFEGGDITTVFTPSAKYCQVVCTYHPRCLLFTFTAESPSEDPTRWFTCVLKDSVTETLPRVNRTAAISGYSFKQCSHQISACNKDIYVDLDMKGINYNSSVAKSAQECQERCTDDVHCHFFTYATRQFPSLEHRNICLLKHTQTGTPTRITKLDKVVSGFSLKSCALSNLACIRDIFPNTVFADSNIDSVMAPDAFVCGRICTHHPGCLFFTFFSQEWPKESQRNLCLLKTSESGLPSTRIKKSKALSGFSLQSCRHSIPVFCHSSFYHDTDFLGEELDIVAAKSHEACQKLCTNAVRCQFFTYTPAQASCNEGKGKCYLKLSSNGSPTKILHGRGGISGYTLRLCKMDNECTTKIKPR
Sequence of human plasma kallikrein (P03952 391-638 limits assumed): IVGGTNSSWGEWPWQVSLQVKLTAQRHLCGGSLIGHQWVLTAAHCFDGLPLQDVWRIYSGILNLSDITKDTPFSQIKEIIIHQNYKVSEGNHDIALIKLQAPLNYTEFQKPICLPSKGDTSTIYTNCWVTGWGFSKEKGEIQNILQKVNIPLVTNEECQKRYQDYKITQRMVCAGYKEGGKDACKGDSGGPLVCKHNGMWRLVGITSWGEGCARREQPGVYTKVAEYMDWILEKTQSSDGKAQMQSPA
Sequence of human plasma kallikrein (P03952 20-390 partner limits assumed): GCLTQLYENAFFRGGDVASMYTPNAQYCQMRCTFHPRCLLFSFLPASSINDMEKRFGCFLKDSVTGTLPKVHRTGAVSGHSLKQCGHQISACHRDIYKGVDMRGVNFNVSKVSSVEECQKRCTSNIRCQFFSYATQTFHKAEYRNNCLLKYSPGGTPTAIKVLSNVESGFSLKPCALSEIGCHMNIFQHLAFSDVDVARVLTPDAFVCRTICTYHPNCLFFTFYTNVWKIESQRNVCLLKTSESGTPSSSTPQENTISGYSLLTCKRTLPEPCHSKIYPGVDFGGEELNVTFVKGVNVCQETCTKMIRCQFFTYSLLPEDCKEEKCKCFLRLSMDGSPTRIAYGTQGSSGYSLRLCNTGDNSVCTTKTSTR

Structure (SMILES) | IC50 (human plasma kallikrein; [1]) [nM] | IC50 (Factor XIa) [nM] | IC50 (human plasma kallikrein; [2]) [nM]
O=C(O)c1ccc(-c2cnn(C(CC3CC3)c3ccc(-c4cc(Cl)ccc4-n4cc(Cl)nn4)c[n+]3[O-])c2)cc1 (stereo not drawn) [Example P4] | 517 | 9.9 | 
CC(N)c1ccc(-c2cnn(C(Cc3ccccc3)c3ccc(-c4cc(Cl)ccc4-n4cnnn4)c[n+]3[O-])c2)cc1 (stereo not drawn) [Example P47] | 405 | 22.2 | 
O=C1OCc2cc(-c3cnn(C(CC4CC4)c4ccc(-c5cc(Cl)ccc5-n5cnnn5)c[n+]4[O-])c3)ccc21 (stereo not drawn) [Example P16] | 401 | 56.1 | 
Nc1ccc(-c2cnn(C(CC3CC3)c3ccc(-c4c(-n5cnnn5)ccc(Cl)c4F)c[n+]3[O-])c2)c[n+]1[O-] (stereo not drawn) [Example P25] | 749 | 9 | 
O=C(O)c1ccc(-c2cnn(C(Cc3ccc(F)cc3)c3ccc(-c4cc(Cl)ccc4OCC(F)(F)F)c[n+]3[O-])c2)cc1 (stereo not drawn) [Example Q2] | 674 | 41 | 
O=C(O)c1ccc(-c2cnn(C(c3cn(-c4ccccc4)nn3)c3ccc(-c4c(-n5cnnn5)ccc(Cl)c4F)c[n+]3[O-])c2)cc1 (stereo not drawn) [Example P35] | 800 | 169 | 
CN1CCc2cc(-c3cnn(C(CC4CC4)c4ccc(-c5cc(Cl)ccc5-n5cnnn5)c[n+]4[O-])c3)ccc2C1=O (stereo not drawn) [Example P15] | 598 | 55.6 | 
COC(=O)Nc1ccc(-c2cnn(C(CC3CC3)c3ccc(-c4cc(Cl)ccc4-n4cc(Cl)nn4)c[n+]3[O-])c2)cc1 (stereo not drawn) [Example P14] | 966 | 94.4 | 
[O-][n+]1cc(-c2c(-n3cnnn3)ccc(Cl)c2F)ccc1C(Cc1nn(CC(F)(F)F)cc1F)n1cc(-c2ccnc(C(F)(F)F)c2)cn1 (stereo not drawn) [Example P741] |  |  | 22.1
NC(=O)C1CC1CC(c1ccc(-c2cc(Cl)ccc2-n2cnnn2)c[n+]1[O-])n1cc(-c2ccc(C(=O)O)cc2)cn1 (stereo not drawn) [Example P113] |  |  | 291
[O-][n+]1cc(-c2cc(Cl)ccc2-n2cnnn2)ccc1C(Cc1ccc(Cl)cc1)n1cc(-c2ccc(F)nc2)cn1 (stereo not drawn) [Example P173] |  |  | 78.4
COc1cc(C(CC2CC2)n2cc(-c3cnn(C(C)C)c(=O)c3)cn2)[n+]([O-])cc1-c1c(-n2cnnn2)ccc(Cl)c1F (stereo not drawn) [Example P161] |  |  | 76.7
[O-][n+]1ccc(-c2cnn(C(Cn3cc(F)cn3)c3ccc(-c4c(-n5cnnn5)ccc(Cl)c4F)c[n+]3[O-])c2)cc1 (stereo not drawn) [Example P360] |  |  | 36.6
COc1cc(C(CC2CC2)n2cc(-c3ncnn3C(F)F)cn2)[n+]([O-])cc1-c1cc(Cl)ccc1-n1cnnn1 (single isomer, unassigned) [Example P917] |  |  | 3.9
CN(C)C(=O)c1ccn(CC(c2ccc(-c3c(-n4cnnn4)ccc(Cl)c3F)c[n+]2[O-])n2cc(-c3ccnc(C(F)(F)F)c3)cn2)n1 (single isomer, unassigned) [Example P451] |  |  | 17.8
O=C(c1ccn(CC(c2ccc(-c3c(-n4cnnn4)ccc(Cl)c3F)c[n+]2[O-])n2cc(-c3cc[n+]([O-])cc3)cn2)n1)N1CCCCC1 (stereo not drawn) [Example P447] |  |  | 4.3
O=C(c1ccn(CC(c2ccc(-c3c(-n4cnnn4)ccc(Cl)c3F)c[n+]2[O-])n2cc(-c3ccnc(C(F)(F)F)c3)cn2)n1)N1CCCCC1 (single isomer, unassigned) [Example P449] |  |  | 12
NC(=O)c1ccc(-c2cnn(C(Cc3ccn(C(F)F)n3)c3ccc(-c4c(C(F)F)ccc(Cl)c4F)c[n+]3[O-])c2)cc1 (single isomer, unassigned) [Example Q68] |  |  | 111
[O-][n+]1cc(-c2c(-n3cnnn3)ccc(Cl)c2F)ccc1C(Cc1ccc(F)cc1)n1cc(-c2c(Cl)nnn2C(F)F)cn1 (stereo not drawn) [Example P605] |  |  | 10.7

The remaining compounds from weak to strong by IC50 (human plasma kallikrein; [1]), led by results:

IC50 (human plasma kallikrein; [1]) [nM] | IC50 (Factor XIa) [nM] | IC50 (human plasma kallikrein; [2]) [nM] | Structure (SMILES)
396 | 3.1 |  | CS(=O)(=O)NC(=O)c1ccc(-c2cnn(C(CC3CC3)c3ccc(-c4cc(Cl)ccc4-n4cnnn4)c[n+]3[O-])c2)cc1 (stereo not drawn) [Example P18]
370 | 71.7 |  | CN1Cc2cc(-c3cnn(C(CC4CC4)c4ccc(-c5cc(Cl)ccc5-n5cnnn5)c[n+]4[O-])c3)ccc2C1=O (stereo not drawn) [Example P12]
355 | 621 |  | COC(=O)Nc1ccc(-c2cnn(C(Cc3ccc(F)cc3)c3ccc(-c4cc(Cl)ccc4C#N)c[n+]3[O-])c2)cc1 (stereo not drawn) [Example Q1]
341 | 21.5 |  | COC(=O)Nc1ccc(-c2cnn(C(Cc3ccccc3)c3ccc(-c4cc(Cl)c(F)cc4-n4cnnn4)c[n+]3[O-])c2)cc1 (stereo not drawn) [Example P46]
329 | 2.7 |  | CC(C)(C)OCCC(c1ccc(-c2cc(Cl)ccc2-n2cnnn2)c[n+]1[O-])n1cc(-c2ccc(C(=O)O)cc2)cn1 (stereo not drawn) [Example P8]
166 | 10.1 |  | Nc1ccc(-c2cnn(C(CC3CC3)c3ccc(-c4c(-n5cnnn5)ccc(Cl)c4F)c[n+]3[O-])c2)cc1 (stereo not drawn) [Example P21]
135 | 3.4 |  | Nc1ccc(-c2cnn(C(CC3CC3)c3ccc(-c4cc(Cl)ccc4-n4cnnn4)c[n+]3[O-])c2)c(Cl)n1 (stereo not drawn) [Example P19]
124 | 2.6 | 157 | O=C(O)c1ccc(-c2cnn(C(CC3CC3)c3ccc(-c4cc(Cl)ccc4-n4cnnn4)c[n+]3[O-])c2)cc1 (stereo not drawn) [Example P1]
114 | 4.9 |  | Nc1ccc(-c2cnn(C(CC3CC3)c3ccc(-c4c(-n5cnnn5)ccc(Cl)c4F)c[n+]3[O-])c2)cn1 (stereo not drawn) [Example P24]
98.2 | 9.4 |  | O=C(O)c1cccc(-c2cnn(C(CC3CC3)c3ccc(-c4cc(Cl)ccc4-n4cnnn4)c[n+]3[O-])c2)c1 (stereo not drawn) [Example P3]
81.4 | 6.9 |  | O=C(O)c1cccc(-c2cnn(C(CC3CC3)c3c(F)cc(-c4cc(Cl)ccc4-n4cnnn4)c[n+]3[O-])c2)c1 (stereo not drawn) [Example P11]
79.2 | 3.4 |  | Nc1ccc(-c2cnn(C(CC3CC3)c3ccc(-c4cc(Cl)ccc4-n4cnnn4)c[n+]3[O-])c2)c(Cl)n1 (single isomer, unassigned) [Example P49]
66.1 | 4.4 |  | CC(=O)Nc1ccc(-c2cnn(C(CC3CC3)c3ccc(-c4c(-n5cnnn5)ccc(Cl)c4F)c[n+]3[O-])c2)cc1 (stereo not drawn) [Example P23]
65.8 | 2.1 | 85.2 | O=C(O)c1ccc(-c2cnn([C@H](CC3CC3)c3ccc(-c4cc(Cl)ccc4-n4cnnn4)c[n+]3[O-])c2)cc1 [Example P6]
57.3 | 3.3 |  | COC(=O)Nc1ccc(-c2cnn(C(CC3CC3)c3c(F)cc(-c4c(-n5cnnn5)ccc(Cl)c4F)c[n+]3[O-])c2)cc1 (stereo not drawn) [Example P30]
56 | 3.2 |  | COCCC(c1ccc(-c2c(-n3cnnn3)ccc(Cl)c2F)c[n+]1[O-])n1cc(-c2ccc(NC(=O)OC)cc2)cn1 (racemic) [Example P38]
46.5 | 3.5 |  | Nc1ccc(-c2cnn(C(Cc3ccccc3)c3ccc(-c4cc(Cl)ccc4-n4cnnn4)c[n+]3[O-])c2)c(Cl)n1 (stereo not drawn) [Example P50]
44.2 | 10 |  | [O-][n+]1cc(-c2cc(Cl)ccc2-n2cnnn2)ccc1C(Cc1ccc(F)cc1)n1cc(-c2ccc(F)cc2)cn1 (stereo not drawn) [Example P22]
37 | 0.29 |  | O=C(O)c1ccc(-c2cnn(C(CC3CC3)c3ccc(-c4c(-n5cnnn5)ccc(Cl)c4F)c[n+]3[O-])c2)cc1 (stereo not drawn) [Example P9]
25.8 | 3.8 |  | COC(=O)Nc1ccc(-c2cnn(C(Cc3ccccc3)c3ccc(-c4cc(Cl)ccc4-n4cnnn4)c[n+]3[O-])c2)cc1 (stereo not drawn) [Example P39]
4.1 | 0.8 | 1.3 | O=C(O)c1ccc(-c2cnn(C(Cc3ccc(F)cc3)c3ccc(-c4cc(Cl)ccc4-n4cnnn4)c[n+]3[O-])c2)cc1 (stereo not drawn) [Example P7]
